From patent US4962109A, “Insecticidally and acaricidally active pyrimidine esters and intermediates therefor” (Imperial Chemical Industries PLC, priority 1985, dated 1990)

What was measured:
Format in all cases: in vivo
[1] = system: Tetranychus urticae (spider mites - adult); test: Contact test on spider mites - adult (TUa), French bean leaf, mortality; details: 72 h, 500 ppm, contact, 3 days, read-out: TUa grading of mortality
How it was run: (§1)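 Product dissolved in acetone, diluted in water with 0.01% wetting agent to 500, 250 or 100 ppm; pests and/or host medium (plant or foodstuff) treated. Mortality or knockdown assessed 1–3 days later, graded A (80–100%), B (50–79%) or C (<50%).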

[2] = system: Tetranychus urticae (spider mites - ova); test: Contact test on spider mites - ova (TUe), French bean leaf, mortality; details: 144 h, 500 ppm, contact, 6 days, read-out: TUe grading of mortality
How it was run: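 Graded read-out: A 80-100%, B 50-79%, C below 50% mortality or knockdown, assessed usually 1-3 days post-treatment. Liquid preparations at 500, 250 or 100 ppm by weight, from acetone solution diluted in water with 0.01% wetting agent, applied to pests and/or their host plant or food medium.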

[3] = system: Myzus persicae (aphids); test: Contact test on aphids (MP), Chinese Cabbage leaf, mortality; details: 72 h, 500 ppm, contact, 3 days, read-out: MP grading of mortality
How it was run: as §1

[4] = system: Nephotettix cincticeps (green leaf hopper - nymphs); test: Contact test on green leaf hopper nymphs (NC), Rice plant, mortality; details: 48 h, 500 ppm, contact, 2 days, read-out: NC grading of mortality
How it was run: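 Product dissolved in acetone, diluted in water with 0.01% wetting agent to 500, 250 or 100 ppm; nymphs and/or host rice plants treated. Mortality or knockdown assessed 1–3 days later, graded A (80-100%), B (50-79%), C (<50%).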

[5] = system: Musca domestica (houseflies - adults); test: Knockdown test on houseflies - adults (MD/KD), Cotton wool/sugar; details: 500 ppm, 4 hours, read-out: MD/KD grading of knockdown
How it was run: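 Adult houseflies exposed to the compound at 500, 250 or 100 ppm in acetone/water with 0.01% wetting agent, on a cotton wool/sugar medium. Knockdown and mortality assessed, graded A (80-100%), B (50-79%) or C (<50%).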

[6] = system: Musca domestica (houseflies - adults); test: Contact test on houseflies - adults (MD), Cotton wool/sugar, mortality; details: 72 h, 500 ppm, contact, 3 days, read-out: MD grading of mortality
How it was run: as §1

[7] = system: Blattella germanica (cockroach nymphs); test: Contact test on cockroach nymphs (BG/C), Plastic pot, mortality; details: 48 h, 500 ppm, contact, 2 days, read-out: BG/C grading of mortality
How it was run: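 Cockroach nymphs and/or their medium were treated with aqueous preparations at 500, 250 or 100 ppm (acetone solution diluted in water with 0.01% Lissapol NX wetting agent). Mortality or knockdown was assessed typically 1–3 days later and graded A (80–100%), B (50–79%) or C (<50%).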

[8] = system: Heliothis virescens (tobacco budworm - larvae); test: Residual test on tobacco budworm larvae (HV), Cotton leaf, mortality; details: 48 h, read-out: HV grading of mortality
How it was run: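 Product in acetone diluted with water containing 0.01% Lissapol NX, at 500, 250 or 100 ppm; pests and/or host medium (here cotton leaf) treated. Mortality scored one to three days later, graded A (80-100%), B (50-79%), C (<50%).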

[9] = system: Spodoptera exigua (lesser army worm - larvae); test: Residual test on lesser army worm larvae (SP), Cotton leaf, mortality; details: 48 h, 500 ppm, residual, 2 days, read-out: SP grading of mortality
How it was run: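 Product dissolved in acetone and diluted in water with 0.01% wetting agent to 500, 250 or 100 ppm; larvae and/or cotton leaf host treated. Mortality or knockdown scored one to three days later and graded A (80-100%), B (50-79%) or C (<50%).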

[10] = system: Diabrotica balteata (rootworm larvae); test: Residual test on rootworm larvae (DB), Filter paper/maize seed, mortality; details: 48 h, 500 ppm, residual, 2 days, read-out: DB grading of mortality
How it was run: as §1

SMILES	mortality at 500 ppm [1] [%]	mortality at 500 ppm [2] [%]	mortality at 500 ppm [3] [%]	mortality at 500 ppm [4] [%]	pest or weed control at 500 ppm [5] [%]	mortality at 500 ppm [6] [%]	mortality at 500 ppm [7] [%]	mortality at 500 ppm [8] [%]	mortality at 500 ppm [9] [%]	mortality at 500 ppm [10] [%]
CC(C)(C)SCc1c(F)c(F)c(COC(=O)C(c2cnc(C(C)(C)C)nc2)C(C)(C)C)c(F)c1F (racemic) [Compound 175, 4-[(1,1-dimethylethyl)thio]methyl-2,3,5,6-tetrafluorobenzyl (RS)-2-[2-(1,1-dimethylethyl)pyrimidin-5-yl]-3,3dimethylbutanoate]	80 to 100	< 50	< 50	< 50	< 50	< 50	< 50	< 50	< 50	< 50
CCN(CC)Cc1c(F)c(F)c(COC(=O)C(c2cnc(C(C)(C)C)nc2)C(C)(C)C)c(F)c1F (racemic) [Compound 176]	80 to 100	< 50	80 to 100	80 to 100	80 to 100	80 to 100	< 50	80 to 100	80 to 100	< 50
CC(C)(C)c1ncc(C(C(=O)OCc2c(F)c(F)c(CN3CCCCC3)c(F)c2F)C(C)(C)C)cn1 (racemic) [Compound 177, 4-[(piperidin-1-yl)methyl]-2,3,5,6-tetrafluorobenzyl (RS)-2-(2-(1,1-dimethylethyl)pyrimidin-5-yl)-3,3-dimethylbutanoate]	80 to 100	< 50	80 to 100	80 to 100	80 to 100	< 50	< 50	< 50	80 to 100	< 50
CC(C)=NOCc1c(F)c(F)c(COC(=O)C(c2cnc(C(C)(C)C)nc2)C(C)(C)C)c(F)c1F (racemic) [Compound 178, 4-(Prop-2-ylideneaminoxymethyl)-2,3,5,6-tetrafluorobenzyl (RS)-2-[2-(1,1-dimethylethyl)pyrimidin-5-yl]-3,3dimethylbutanoate]	80 to 100	< 50	80 to 100	80 to 100	< 50	< 50	< 50	< 50	< 50	< 50
CC(C)(C)c1ncc(C(C(=O)OCc2c(F)c(F)c(CC3CC3)c(F)c2F)C(C)(C)C)cn1 (racemic) [Compound 179, 4-(cyclopropylmethyl)-2,3,5,6-tetrafluorobenzyl (RS)-2-[2-(1,1-dimethylethyl)pyrimidin-5-yl]-3,3-dimethylbutanoate]	80 to 100	< 50	80 to 100	80 to 100	< 50	< 50	< 50	< 50	< 50	< 50
CC(C)(C)c1ncc(C(C(=O)OCc2cccc(Oc3ccc(Cl)cc3)c2)C(C)(C)C)cn1 (racemic) [Compound 180, 3-(4-chlorophenoxy)benzyl (RS)-2-[2-(1,1-dimethylethyl)pyrimidin-5-yl]-3,3-dimethylbutanoate]	80 to 100	< 50	80 to 100	80 to 100	80 to 100	80 to 100	< 50	80 to 100	80 to 100	< 50
